Experimental findings from patent US20040006236A1, “Diaminopropionic acid derivatives” (priority 1999, published 2004) are described below.

Assay [1] has as its target T1, LFA-1 binding to immobilized ICAM-1 (Homo sapiens, UniProt P05107+P20701).
T1 construct: made in house; host or cells: transfected 293 cells (LFA-1)
Description: LFA-1/ICAM-1 protein-protein assay (solid-phase ELISA). Conditions: read-out: LFA-1/ICAM-1 Protein-Protein Assay IC50. In outline:
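Human 5dICAM-Ig (ICAM-1 extracellular domain–IgG Fc) coated on plates; membrane-bound LFA-1 from transfected 293 cells (280 ng/mL) added with compound in Mn2+-containing HEPES buffer pH 7.2, 2 h at 37° C. Bound LFA-1 detected via anti-β2 antibody and HRP/TMB at 450 nm; IC50s determined.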
Background: In an ELISA, binding on a coated surface is turned into a signal by an enzyme label.

For assay [2], the system named is T lymphocyte proliferation (C57BI/6 spleen cells with irradiated BALB/c spleen cells). The experiment in a line: Mixed lymphocyte reaction (MLR), one-way. The format is cell-based, mice. The note with it: read-out: MLR IC50. An excerpt: Admixture of murine spleen cells from two different inbred strains of mice induces proliferation of T lymphocytes. The magnitude of T cell proliferation depends on the extent of disparity in the major histocompatibility antigens between the two strains. Splenic T lymphocytes from both strains proliferate due to alloantigen recognition, a process for which the interaction of ICAM-1 on antigen-presenting cells with LFA-1 on lymphocytes is necessary. The ability of antagonists to inhibit T lymphocyte proliferation following recognition of alloantigens was assessed in a one-way MLR, where cells from one strain were irradiated to permit measurement of the proliferative response of cells from the other strain. Spleen cells were washed three times in tissue culture medium (TCM; see below). […] One hundred microliters of serial dilutions of antagonists or TCM were added to the spleen cell mixture. The total volume in each well was 200 μL. TCM was RPMI1640 containing 10% heat-inactivated fetal bovine serum, […] L-glutamine, 100 Units/ml each of penicillin and streptomycin and 5×10^−5 M 2-mercaptoethanol. Dilutions of antagonists were prepared in TCM. Plates were incubated in 5% CO2 for 3 days. On the third day, 0.5 μCi of tritiated thymidine (10 μCi/mL) was added to all the wells. Cells were harvested 6 h later on a 96-well plate harvester and the amount of tritiated thymidine incorporated was assessed in a liquid scintillation counter.

Assay [3] has as its system cell-surface Mac-1 adhesion to immobilized fibrinogen (HL-60 cells). Description: Mac-1/Fibrinogen cell-based screening assay. The arrangement: species or system human. Conditions: read-out: Mac-1/Fgn Cell based Assay IC50. The protocol: Cellular Mac-1/Fibrinogen antagonist activity, defined as the ability to inhibit cell-surface Mac-1 adhesion to immobilized fibrinogen, was quantitated by a cell based assay. Human fibrinogen was coated onto 96 well microtiter plates (1 μg in 100 μL TBS) overnight at 4° C. The plates were then blocked with 150 μL of 10% polyvinyl pyrrolidone (PVP) in TBS for 1 h at 37° C. Plates were washed 3 times (150 μL each) with TBS. […] A ten-fold excess of volume of the same buffer was added and cells were centrifuged. The medium was decanted and cells were resuspended at a concentration of 2×10^6 cells/mL in RPMI/0.05% BSA/0.2 mM MnCl2. Stock solutions (10 mM in DMSO) of test compounds were diluted to 2.5 mM with DMSO. […] Each sample was further diluted 50-fold with RPMI/0.05% BSA/0.2 mM MnCl2. Equal volumes of labeled cells were then added to assay tubes containing diluted compounds. […] Cells were incubated for 10 min at 37° C. with gentle shaking, then dispensed (100 μL per well) onto fibrinogen coated plates and incubated for 30 min at 37° C./5% CO2. Unbound cells were gently washed with TBS two times.

The mark [4] stands for this setting: Homo sapiens, HL-60, HL-60 cells.

Read-outs that look alike come from different tables or passages of the source.

T1 sequence (P20701 26-1170): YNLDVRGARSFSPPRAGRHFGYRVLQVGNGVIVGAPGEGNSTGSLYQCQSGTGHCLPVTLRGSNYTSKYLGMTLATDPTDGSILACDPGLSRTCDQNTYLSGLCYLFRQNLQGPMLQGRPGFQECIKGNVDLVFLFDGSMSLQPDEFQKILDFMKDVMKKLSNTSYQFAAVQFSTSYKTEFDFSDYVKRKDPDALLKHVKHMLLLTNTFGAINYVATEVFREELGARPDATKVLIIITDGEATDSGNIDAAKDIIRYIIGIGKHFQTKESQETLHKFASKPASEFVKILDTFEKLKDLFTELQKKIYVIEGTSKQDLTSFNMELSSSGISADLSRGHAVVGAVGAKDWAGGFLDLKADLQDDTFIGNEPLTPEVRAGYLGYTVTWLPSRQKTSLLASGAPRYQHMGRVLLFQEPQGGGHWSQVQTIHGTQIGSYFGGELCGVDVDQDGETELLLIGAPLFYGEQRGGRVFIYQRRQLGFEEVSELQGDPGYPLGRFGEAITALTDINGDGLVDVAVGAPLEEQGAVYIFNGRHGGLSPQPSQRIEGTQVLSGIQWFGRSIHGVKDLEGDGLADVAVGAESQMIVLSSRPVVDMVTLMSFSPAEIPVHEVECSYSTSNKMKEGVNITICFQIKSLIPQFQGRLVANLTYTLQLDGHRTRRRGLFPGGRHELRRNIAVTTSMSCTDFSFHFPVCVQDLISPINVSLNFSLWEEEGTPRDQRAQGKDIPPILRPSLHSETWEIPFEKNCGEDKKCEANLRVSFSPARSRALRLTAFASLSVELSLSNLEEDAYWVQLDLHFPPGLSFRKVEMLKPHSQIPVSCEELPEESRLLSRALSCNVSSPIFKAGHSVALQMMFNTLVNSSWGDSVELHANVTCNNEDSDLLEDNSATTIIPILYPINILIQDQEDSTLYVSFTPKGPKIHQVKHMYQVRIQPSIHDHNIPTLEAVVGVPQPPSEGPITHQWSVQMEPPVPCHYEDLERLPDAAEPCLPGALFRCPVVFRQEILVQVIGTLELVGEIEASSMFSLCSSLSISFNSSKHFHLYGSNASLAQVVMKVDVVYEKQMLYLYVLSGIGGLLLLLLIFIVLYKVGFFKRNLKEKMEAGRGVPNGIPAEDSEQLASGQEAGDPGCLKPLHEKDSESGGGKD
T1 sequence (P05107 23-769): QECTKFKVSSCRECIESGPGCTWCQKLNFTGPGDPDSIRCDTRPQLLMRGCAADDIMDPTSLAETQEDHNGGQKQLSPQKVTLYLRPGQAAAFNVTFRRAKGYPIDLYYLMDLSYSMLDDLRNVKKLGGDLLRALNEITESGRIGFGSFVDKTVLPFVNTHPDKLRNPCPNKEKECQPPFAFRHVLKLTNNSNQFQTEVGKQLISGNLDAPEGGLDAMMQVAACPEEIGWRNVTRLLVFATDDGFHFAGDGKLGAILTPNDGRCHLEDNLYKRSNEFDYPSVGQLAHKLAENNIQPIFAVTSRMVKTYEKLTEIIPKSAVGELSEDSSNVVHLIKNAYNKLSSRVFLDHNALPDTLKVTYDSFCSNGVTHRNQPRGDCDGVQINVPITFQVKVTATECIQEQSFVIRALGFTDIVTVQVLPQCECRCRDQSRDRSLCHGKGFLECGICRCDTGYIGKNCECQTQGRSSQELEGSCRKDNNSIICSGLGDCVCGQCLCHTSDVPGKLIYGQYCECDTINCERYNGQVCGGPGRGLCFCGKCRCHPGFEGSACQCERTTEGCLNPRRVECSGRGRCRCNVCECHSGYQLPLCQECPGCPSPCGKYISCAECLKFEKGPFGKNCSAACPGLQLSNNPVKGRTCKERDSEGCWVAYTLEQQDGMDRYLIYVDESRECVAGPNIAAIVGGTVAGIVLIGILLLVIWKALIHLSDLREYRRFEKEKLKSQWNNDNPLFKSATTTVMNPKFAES

For `O=C(NC[C@H](NC(=O)c1ccc(C(O)CCc2cccc(O)c2)cc1Cl)C(=O)O)c1cccs1` (mixture of isomers) [Example 320], the IC50 in assay [1] turned out to be 1 nM; in assay [2] (Mus musculus, T-lymphocyte), 145 nM; in assay [3] (setting [4]) it was 64 nM.
With `O=C(NCc1cccc(O)c1)c1ccc(C(=O)N[C@@H](CNC(=O)c2cc([N+](=O)[O-])[nH]n2)C(=O)O)c(Cl)c1` [Example 152], the IC50 in assay [3] (setting [4]) came to 1220 nM.
For the compound `O=C(NCc1cccc(O)c1)c1ccc(C(=O)N[C@@H](CNC(=O)c2cc(Br)cc(Br)c2)C(=O)O)c(Cl)c1` [Example 228, N-[2-chloro-4-[[[(3-hydroxyphenyl)methyl]amino]carbonyl]benzoyl]-3-(3,5-dibromobenzoyl)amino-L-alanine], the IC50 in assay [1] was 7.1 nM; in assay [2] (Mus musculus, T-lymphocyte), 5000 nM; in assay [3] (setting [4]) it was 149 nM.
Take `O=C(NCc1cccc(O)c1)c1ccc(C(=O)N[C@@H](CNC(=O)c2cc(F)cc(C(F)(F)F)c2)C(=O)O)c(Cl)c1` [Example 260]: the IC50 in assay [1] was determined as 5.4 nM; in assay [2] (Mus musculus, T-lymphocyte), 1950 nM; in assay [3] (setting [4]), 330 nM.
For the compound `O=C(NCc1cccc(O)c1)c1ccc(C(=O)N[C@@H](CNC(=O)[C@@H]2CSCN2)C(=O)O)c(Cl)c1` [Example 267], the IC50 in assay [1] amounted to 2.9 nM; in assay [2] (Mus musculus, T-lymphocyte), 490 nM; in assay [3] (setting [4]) it was 71 nM.
On to `O=C(NCc1cccc(O)c1)c1ccc(C(=O)N[C@@H](CNC(=O)[C@@H]2C[C@@H](O)CN2)C(=O)O)c(Cl)c1` [Example 268], for which the IC50 turned out to be 1.7 nM in assay [1]; 900 nM in assay [2] (Mus musculus, T-lymphocyte); 148 nM in assay [3] (setting [4]).
For `NCCCCCCCCCCC(=O)NC[C@H](NC(=O)c1ccc(C(=O)NCc2cccc(O)c2)cc1Cl)C(=O)O` [Example 270], in that order: 7.9 nM, 4750 nM and 357 nM.
For the compound `N[C@@H](Cc1ccc([N+](=O)[O-])cc1)C(=O)NC[C@H](NC(=O)c1ccc(C(=O)NCc2cccc(O)c2)cc1Cl)C(=O)O` [Example 271], the IC50 worked out at 3.8 nM in assay [1]; 4100 nM in assay [2] (Mus musculus, T-lymphocyte); 547 nM in assay [3] (setting [4]).
For the compound `N[C@@H](Cc1ccc(OCc2c(Cl)cccc2Cl)cc1)C(=O)NC[C@H](NC(=O)c1ccc(C(=O)NCc2cccc(O)c2)cc1Cl)C(=O)O` [Example 273], the IC50 in assay [1] worked out at 7.4 nM; in assay [2] (Mus musculus, T-lymphocyte), 12000 nM; in assay [3] (setting [4]), 1740 nM.
With `N[C@H](Cc1c[nH]c2ccccc12)C(=O)NC[C@H](NC(=O)c1ccc(C(=O)NCc2cccc(O)c2)cc1Cl)C(=O)O` [Example 276], the IC50 is 6.9 nM in assay [1]; 7250 nM in assay [2] (Mus musculus, T-lymphocyte); 235 nM in assay [3] (setting [4]).
For the compound `CC(C)C[C@H](N)C(=O)NC[C@H](NC(=O)c1ccc(C(=O)NCc2cccc(O)c2)cc1Cl)C(=O)O` [Example 277], the IC50 in assay [1] turned out to be 4.3 nM; in assay [2] (Mus musculus, T-lymphocyte), 8700 nM; in assay [3] (setting [4]), 282 nM.
For `CCCC[C@H](N)C(=O)NC[C@H](NC(=O)c1ccc(C(=O)NCc2cccc(O)c2)cc1Cl)C(=O)O` [Example 278], the IC50 in assay [1] is 8.5 nM; in assay [2] (Mus musculus, T-lymphocyte), 13500 nM; in assay [3] (setting [4]) it was 311 nM.
Consider `CN[C@@H](C)C(=O)NC[C@H](NC(=O)c1ccc(C(=O)NCc2cccc(O)c2)cc1Cl)C(=O)O` [Example 279], for which the IC50 amounted to 8 nM in assay [1]; 2200 nM in assay [2] (Mus musculus, T-lymphocyte); 371 nM in assay [3] (setting [4]).
Take `C[C@H](N)C(=O)NC[C@H](NC(=O)c1ccc(C(=O)NCc2cccc(O)c2)cc1Cl)C(=O)O` [Example 280]: the IC50 in assay [1] is 3.1 nM; in assay [2] (Mus musculus, T-lymphocyte), 4200 nM; in assay [3] (HL-60 cells), 77 nM.
Regarding `C[C@H](N)C(=O)NC[C@H](NC(=O)c1ccc(C(=O)NCc2cccc(O)c2)cc1Cl)C(=O)O` [Example 281], the IC50 in assay [2] was determined as 4450 nM; in assay [3] (HL-60 cells) it was 291 nM.
For the compound `CC(C)(N)C(=O)NC[C@H](NC(=O)c1ccc(C(=O)NCc2cccc(O)c2)cc1Cl)C(=O)O` [Example 282], the IC50 in assay [1] stood at 4.6 nM; in assay [2] (Mus musculus, T-lymphocyte), 1050 nM; in assay [3] (setting [4]), 162 nM.
For the compound `CNCC(=O)NC[C@H](NC(=O)c1ccc(C(=O)NCc2cccc(O)c2)cc1Cl)C(=O)O` [Example 283], the IC50 came out at 3.1 nM in assay [1]; 1500 nM in assay [2] (Mus musculus, T-lymphocyte); 166 nM in assay [3] (setting [4]).
`NC1(C(=O)NC[C@H](NC(=O)c2ccc(C(=O)NCc3cccc(O)c3)cc2Cl)C(=O)O)CCCCC1` [Example 284]: the IC50 was found to be 5.7 nM in assay [1]; 1130 nM in assay [2] (Mus musculus, T-lymphocyte); 198 nM in assay [3] (setting [4]).
With `N[C@H](C(=O)NC[C@H](NC(=O)c1ccc(C(=O)NCc2cccc(O)c2)cc1Cl)C(=O)O)c1ccccc1` [Example 285], the IC50 was found to be 3.1 nM in assay [1]; 3100 nM in assay [2] (Mus musculus, T-lymphocyte); 135 nM in assay [3] (setting [4]).
For `NC[C@H]1CC[C@H](C(=O)NC[C@H](NC(=O)c2ccc(C(=O)NCc3cccc(O)c3)cc2Cl)C(=O)O)CC1` [Example 286], in that order: 4.1 nM, 1520 nM and 74 nM.
In the case of `N[C@@H](COCc1ccccc1)C(=O)NC[C@H](NC(=O)c1ccc(C(=O)NCc2cccc(O)c2)cc1Cl)C(=O)O` [Example 293], the IC50 in assay [1] was determined as 6.3 nM; in assay [2] (Mus musculus, T-lymphocyte), 13500 nM; in assay [3] (setting [4]), 290 nM.
In the case of `N[C@H]1Cc2ccccc2CN(CC(=O)NC[C@H](NC(=O)c2ccc(C(=O)NCc3cccc(O)c3)cc2Cl)C(=O)O)C1=O` [Example 295], the IC50 was found to be 1.9 nM in assay [1]; 1620 nM in assay [2] (Mus musculus, T-lymphocyte); 89 nM in assay [3] (setting [4]).
As for `O=C(NCc1cccc(O)c1)c1ccc(C(=O)N[C@@H](CNC(=O)[C@@H]2Cc3c([nH]c4ccccc34)CN2)C(=O)O)c(Cl)c1` [Example 296], the IC50 turned out to be 3.4 nM in assay [1]; 4600 nM in assay [2] (Mus musculus, T-lymphocyte); 167 nM in assay [3] (setting [4]).
On to `Cc1cc(C(=O)NCc2cccc(O)c2)ccc1C(=O)N[C@@H](CNC(=O)c1ccccc1)C(=O)O` [Example 324], for which the IC50 came to 1.5 nM in assay [1]; 460 nM in assay [2] (Mus musculus, T-lymphocyte); 32 nM in assay [3] (setting [4]).
Turning to `Cc1cc(C(=O)N[C@H](C)c2cccc3ccccc23)ccc1C(=O)N[C@@H](CNC(=O)c1cccs1)C(=O)O` [Example 325], the IC50 in assay [1] stood at 2.6 nM; in assay [2] (Mus musculus, T-lymphocyte), 965 nM; in assay [3] (setting [4]), 59 nM.
Regarding `Cc1cc(C(=O)N[C@H](C)c2cccc3ccccc23)ccc1C(=O)N[C@@H](CNC(=O)c1ccccc1)C(=O)O` [Example 326], the IC50 in assay [1] was 4.1 nM; in assay [2] (Mus musculus, T-lymphocyte) it was 1500 nM; in assay [3] (setting [4]), 93 nM.
Regarding `O=C(NCc1cccc(O)c1)c1ccc(C(=O)N[C@@H](CNC(=O)c2cccs2)C(=O)O)c(Br)c1` [Example 328, N-[2-bromo-4-[[[(3-hydroxyphenyl)methyl]amino]carbonyl]benzoyl]-3-(thiophene-2-carbonyl)amino-L-alanine], the IC50 in assay [1] was found to be 1.3 nM; in assay [2] (Mus musculus, T-lymphocyte), 160 nM; in assay [3] (setting [4]), 28 nM.
For `O=C(NCc1cccc(O)c1)c1ccc(C(=O)N[C@@H](CNC(=O)c2cccs2)C(=O)O)c(F)c1` [Example 331], in that order: 1.1 nM, 710 nM and 68 nM.
